From the supplement of paper PMC10307832

Tests used:
Assay in all cases: relative viability (nuclei count vs DMSO), 5 days (fraction); higher = more cells survive
[1] = compound: CCn1c(-c2nonc2N)nc2c(C#CC(C)(C)O)ncc(OC[C@H]3CCCNC3)c21 + COc1cc2c(Oc3ccc(NC(=O)C4(C(=O)Nc5ccc(F)cc5)CC4)cc3F)ccnc2cc1OCCCN1CCOCC1 [Foretinib] (partner 0.25 µM)
In short: (§1)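 Relative viability was taken as the ratio of nuclei in treated wells to nuclei in vehicle wells. Lung cancer cell lines in 1536-well plates received compounds by pin tool one day after seeding, either one drug alone or a fixed anchor-drug dose plus five library-drug doses (not always all listed) in √10 steps. Nuclei were counted on 4× images after 5 days of treatment, and values are medians of duplicate plates.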

[2] = compound: CCn1c(-c2nonc2N)nc2c(C#CC(C)(C)O)ncc(OC[C@H]3CCCNC3)c21 + CC(=O)Nc1cccc(-n2c(=O)n(C3CC3)c(=O)c3c(Nc4ccc(I)cc4F)n(C)c(=O)c(C)c32)c1 [Trametinib] (partner 0.02 µM)
In short: as §1

BAM7 + Dasatinib = compound: CCOC1=CC=CC=C1N=NC2=C(NN(C2=O)C3=NC(=CS3)C4=CC=CC=C4)C [BAM7] + Cc1nc(Nc2ncc(C(=O)Nc3c(C)cccc3Cl)s2)cc(N2CCN(CCO)CC2)n1 [Dasatinib] (partner 0.075 µM)
In short: as §1

BAM7 + Bortezomib = compound: CCOC1=CC=CC=C1N=NC2=C(NN(C2=O)C3=NC(=CS3)C4=CC=CC=C4)C [BAM7] + CC(C)C[C@H](NC(=O)[C@H](Cc1ccccc1)NC(=O)c1cnccn1)B(O)O [Bortezomib] (partner 0.002 µM)
In short: as §1

Cell Line | relative viability ([1]; first compound 0.01 µM) | relative viability ([1]; first compound 0.03162 µM) | relative viability ([1]; first compound 0.1 µM) | relative viability ([1]; first compound 0.3162 µM) | relative viability ([1]; first compound 1 µM) | relative viability ([2]; first compound 0.01 µM) | relative viability ([2]; first compound 0.03162 µM) | relative viability ([2]; first compound 0.1 µM) | relative viability ([2]; first compound 0.3162 µM) | relative viability ([2]; first compound 1 µM) | relative viability (BAM7 + Dasatinib; first compound 0.5 µM) | relative viability (BAM7 + Dasatinib; first compound 5 µM) | relative viability (BAM7 + Dasatinib; first compound 15.81 µM) | relative viability (BAM7 + Dasatinib; first compound 50 µM) | relative viability (BAM7 + Bortezomib; first compound 0.5 µM) | relative viability (BAM7 + Bortezomib; first compound 5 µM) | relative viability (BAM7 + Bortezomib; first compound 15.81 µM) | relative viability (BAM7 + Bortezomib; first compound 50 µM)
RERF-LC-KJ | 0.858 | 0.821 | 0.921 | 0.767 | 0.973 | 0.854 | 0.818 | 0.842 | 0.778 | 0.835 | 0.639 | 0.539 | 0.323 | 0.358 | 1.05 | 1.01 | 0.948 | 0.972
LXF-289 | 0.983 | 1.05 | 0.979 | 0.952 | 0.955 | 0.686 | 0.66 | 0.703 | 0.609 | 0.668 | 0.276 | 0.235 | 0.256 | 0.253 | 1.07 | 1.1 | 1.02 | 1.01
PC-14 | 0.933 | 1.02 | 1.02 | 0.894 | 1 | 0.716 | 0.772 | 0.613 | 0.446 | 0.444 | 0.229 | 0.211 | 0.228 | 0.295 | 0.918 | 1.03 | 0.846 | 0.806
NCI-H650 | 1.01 | 0.979 | 0.993 | 1 | 1.13 | 0.934 | 0.977 | 0.938 | 0.897 | 1.07 | 0.422 | 0.49 | 0.477 | 0.517 | 0.884 | 0.948 | 0.878 | 0.885
NCI-H1666 | 0.946 | 0.957 | 0.982 | 1.02 | 1.02 | 0.819 | 0.791 | 0.861 | 0.819 | 0.878 | 0.847 | 0.832 | 0.755 | 0.876 | 0.852 | 0.682 | 0.729 | 0.998
NCI-H2085 | 0.857 | 0.901 | 0.985 | 0.994 | 0.881 | 0.452 | 0.539 | 0.439 | 0.427 | 0.59 | 0.237 | 0.211 | 0.229 | 0.217 | 1.07 | 1.12 | 0.979 | 1.16
NCI-H1734 | 0.765 | 0.841 | 0.801 | 0.748 | 0.799 | 0.705 | 0.664 | 0.678 | 0.584 | 0.679 | 0.503 | 0.59 | 0.491 | 0.53 | 1.13 | 1.12 | 0.888 | 0.978
